Active and inactive are the calls of the source. No rule for the calls is given here.
Target: Receptor-interacting serine/threonine-protein kinase 2 (Homo sapiens) (UniProt O43353)
Test: NOD2-RIPK2 binding disruptor potency, late-stage follow-up, cell-based, fluorescence (AID 651962)
Conditions: cell-based NOD2-RIPK2 interaction, fluorescence read-out

Receptor-interacting serine/threonine-protein kinase 2 (Homo sapiens), sequence (O43353 whole entry, looked up): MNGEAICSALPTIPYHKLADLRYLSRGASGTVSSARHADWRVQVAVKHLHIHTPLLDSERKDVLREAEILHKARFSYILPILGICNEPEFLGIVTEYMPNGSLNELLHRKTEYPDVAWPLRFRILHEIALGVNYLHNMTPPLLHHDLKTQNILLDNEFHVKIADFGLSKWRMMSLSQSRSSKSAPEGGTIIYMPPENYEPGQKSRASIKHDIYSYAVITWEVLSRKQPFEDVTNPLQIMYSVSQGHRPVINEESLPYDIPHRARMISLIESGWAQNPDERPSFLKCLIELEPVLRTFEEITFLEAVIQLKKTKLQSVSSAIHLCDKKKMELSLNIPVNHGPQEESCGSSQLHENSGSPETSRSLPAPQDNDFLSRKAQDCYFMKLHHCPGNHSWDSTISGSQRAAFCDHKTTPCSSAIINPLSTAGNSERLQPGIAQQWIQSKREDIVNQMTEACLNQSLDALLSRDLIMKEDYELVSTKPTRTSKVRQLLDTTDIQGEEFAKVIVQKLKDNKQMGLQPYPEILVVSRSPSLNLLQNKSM

| SMILES | IC50 |
| --- | --- |
| Cc1ccc(S(=O)(=O)N2CCCCCC2)cc1[N+](=O)[O-] | > 49.8 µM (inactive) |
| COc1ccc(C(C[N+](=O)[O-])n2nc(C)cc2C)cc1 (stereo unspecified) | 3.81 µM |
| Cc1nc([N+](=O)[O-])c(Br)n1Cc1ccccc1 | inactive |
| Cc1nc([N+](=O)[O-])c(Br)n1Cc1ccc(Cl)c(Cl)c1 | inactive |
| Cc1ncc([N+](=O)[O-])n1Cc1ccc(Cl)c(Cl)c1 | > 49.8 µM (inactive) |
| Cc1ccc(C(C[N+](=O)[O-])n2nc(C)cc2C)cc1 (stereo unspecified) | 2.97 µM |
| O=[N+]([O-])c1cccc(S(=O)(=O)N2CCCCCC2)c1 | > 49.8 µM (inactive) |
| O=S(=O)(c1ccc(F)cc1)N1CCCCCC1 | > 49.8 µM (inactive) |
| O=S(=O)(c1ccccc1)N1CCCCCC1 | > 49.8 µM (inactive) |
| Cc1cc(S(=O)(=O)N2CCCCCC2)ccc1F | > 49.8 µM (inactive) |
| O=[N+]([O-])c1cc(S(=O)(=O)N2CCCCCC2)ccc1F | 8.04 µM |

Reference: PubChem BioAssay AID651962 (The Scripps Research Institute Molecular Screening Center, 2012)
